Assay results taken from ChEMBL document CHEMBL3817750, “New hydrazones of 5-nitro-2-furaldehyde with adamantanealkanohydrazides: synthesis and in vitro trypanocidal activity” (Medchemcomm, 2016).

Experiments:
[1] = test system: Trypanosoma cruzi; test: Trypanocidal activity against epimastigote form of Trypanosoma cruzi CL Brener assessed as reduction in parasitic growth after 4 days by Alamar blue assay; format: functional; conditions: 96 h
[2] = test system: Trypanosoma brucei; test: Trypanocidal activity against bloodstream form of Trypanosoma brucei 427 assessed as reduction in parasitic growth after 48 hrs by Alamar blue assay; format: functional, organism-based; conditions: Trypanosoma brucei, 427, 48 h
[3] = Selectivity index, ratio of IC50 for rat L6 cells to IC50 for bloodstream form of Trypanosoma brucei 427; format: toxicity, cell-based; conditions: read-out: Ratio IC50
[4] = Selectivity index, ratio of IC50 for rat L6 cells to IC50 for epimastigote form of Trypanosoma cruzi CL Brener; format: toxicity, cell-based; conditions: read-out: Ratio IC50
[5] = test system: L6; test: Cytotoxicity against rat L6 cells after 6 days by Alamar blue assay; format: cell-based
[6] = Rattus norvegicus, L6, 144 h, read-out: IC50

Row | Compound | IC50 [1] | IC90 [1] | IC50 [2] | IC90 [2] | selectivity ratio [3] | selectivity ratio [4] | IC50 [5, 6] | IC50 ([5]; l6)
1 | O=C(CC12CC3CC(CC(C3)C1)C2)N/N=C/c1ccc([N+](=O)[O-])o1 | 205 nM | 568 nM | 242 nM | 553 nM | 13 | 15 | 3170 nM | 
2 | O=C(N/N=C/c1ccco1)C12CC3CC(CC(C3)C1)C2 | > 35000 nM | > 35000 nM | > 35000 nM | > 35000 nM |  |  | > 35000 nM | 
3 | O=C(N/N=C/c1ccc([N+](=O)[O-])o1)C1C2CC3CC(C2)CC1C3 (stereo unspecified) | 844 nM | 1960 nM | 231 nM | 599 nM | 83 | 23 | 19200 nM | 
4 | O=C(CCC12CC3CC(C1)CC(c1ccccc1)(C3)C2)N/N=C/c1ccc([N+](=O)[O-])o1 | 238 nM | 654 nM | 90 nM | 167 nM | 51 | 17 | 4590 nM | 
5 | O=C(CC12CC3CC(CC(C3)C1)C2)N/N=C/c1ccco1 | > 35000 nM | > 35000 nM | > 35000 nM | > 35000 nM |  |  | > 35000 nM | 
6 | O=C(CCC12CC3CC(C1)CC(C1CCCC1)(C3)C2)N/N=C/c1ccc([N+](=O)[O-])o1 | 140 nM | 803 nM | 158 nM | 322 nM | 29 | 33 | 4600 nM | 
7 | O=C(CCC12CC3CC(CC(C3)C1)C2)N/N=C/c1ccco1 | 6090 nM | 15700 nM | > 30000 nM | > 30000 nM |  |  | > 30000 nM | 
8 | O=C(N/N=C/c1ccc([N+](=O)[O-])o1)C12CC3CC(CC(C3)C1)C2 | 561 nM | 992 nM | 851 nM | 1040 nM | 9 | 14 | 7720 nM | 
9 | O=C(N/N=C/c1ccc([N+](=O)[O-])o1)C12CC3CC(C1)CC(C1CCCC1)(C3)C2 | 225 nM | 528 nM | 216 nM | 425 nM | 51 | 49 | 11000 nM | 
10 | O=C(CCC1C2CC3CC(C2)CC1C3)N/N=C/c1ccc([N+](=O)[O-])o1 (stereo unspecified) | 206 nM | 513 nM | 122 nM | 177 nM | 20 | 12 | 2380 nM | 
11 | O=C(CC12CC3CC(C1)CC(C1CCCC1)(C3)C2)N/N=C/c1ccc([N+](=O)[O-])o1 | 178 nM | 329 nM | 306 nM | 459 nM | 29 | 49 | 8790 nM | 
12 | CCOC(=O)CC12CC3CC(CC(CC(=O)N/N=C/c4ccc([N+](=O)[O-])o4)(C3)C1)C2 | 204 nM | 478 nM | 223 nM | 643 nM | 34 | 32 | 7490 nM | 
13 | O=C(CC1C2CC3CC(C2)CC1C3)N/N=C/c1ccc([N+](=O)[O-])o1 (stereo unspecified) | 202 nM | 381 nM | 126 nM | 207 nM | 26 | 16 | 3260 nM | 
14 | O=C(CCC12CC3CC(CC(C3)C1)C2)N/N=C/c1ccc([N+](=O)[O-])o1 | 348 nM | 719 nM | 386 nM | 560 nM | 41 | 56 | 16000 nM | 
15 | O=C(CC12CC3CC(C1)CC(c1ccccc1)(C3)C2)N/N=C/c1ccc([N+](=O)[O-])o1 | 91 nM | 180 nM | 221 nM | 573 nM | 23 | 55 | 5020 nM | 
16 | O=C(N/N=C/c1ccc([N+](=O)[O-])o1)C12CC3CC(C1)CC(c1ccccc1)(C3)C2 | 368 nM | 676 nM | 244 nM | 406 nM | 47 | 31 | 11400 nM | 
17 | O=C(N/N=C/c1ccc([N+](=O)[O-])o1)C12CC3CC(C1)CC(C(=O)N/N=C/c1ccc([N+](=O)[O-])o1)(C3)C2 | > 2000 nM | > 2000 nM | 75 nM | 98 nM |  |  |  | ND(Insoluble)
